Data: patent publication US11691962B2 (eXIthera Pharmaceuticals, Inc., priority 2018, dated 2023)

Key:
[1] = Caco-2 cell permeability assay; type: in vitro ADME, human; settings: human, 37° C.; for Papp A→B at 60 min, 10 μM: Caco-2, apical to basolateral; for Papp B→A at 40 min, 10 μM: Caco-2, basolateral to apical
How it was run: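 Caco-2 monolayers (days 21-25 post-seeding) received 10 μM compound in HBSS-MES pH 6.5 or HBSS-HEPES pH 7.4 (1% DMSO) at 37 °C, for 60 min A-B or 40 min B-A. Donor and receiver samples were quantified by HPLC-MS/MS (SRM), and Papp and recovery were calculated.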

Factor XIa = Factor XIa (Homo sapiens (Human), UniProt P03951); test: Factor XIa enzyme inhibition assay (dose response, fluorogenic AMC substrate); type: biochemical; settings: read-out: hFXIa IC50
Factor XIa, sequence (P03951 388-625): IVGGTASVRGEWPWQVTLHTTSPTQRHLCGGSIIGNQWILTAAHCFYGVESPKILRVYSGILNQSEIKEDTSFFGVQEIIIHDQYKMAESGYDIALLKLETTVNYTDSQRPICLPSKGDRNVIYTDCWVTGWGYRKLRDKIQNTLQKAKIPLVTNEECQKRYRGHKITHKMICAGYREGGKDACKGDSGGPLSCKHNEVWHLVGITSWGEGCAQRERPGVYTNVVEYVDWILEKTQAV
Factor XIa, sequence (P03951 19-387 partner): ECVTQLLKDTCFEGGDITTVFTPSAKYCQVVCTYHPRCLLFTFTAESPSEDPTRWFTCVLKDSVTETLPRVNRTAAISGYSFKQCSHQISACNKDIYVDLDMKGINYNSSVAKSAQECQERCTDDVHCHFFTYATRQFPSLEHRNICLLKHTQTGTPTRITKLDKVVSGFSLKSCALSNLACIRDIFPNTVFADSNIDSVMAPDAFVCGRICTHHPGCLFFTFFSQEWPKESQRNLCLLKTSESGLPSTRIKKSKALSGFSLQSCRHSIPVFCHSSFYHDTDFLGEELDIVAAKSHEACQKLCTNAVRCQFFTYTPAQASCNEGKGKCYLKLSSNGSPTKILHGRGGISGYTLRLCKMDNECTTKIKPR
How it was run: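 Fluorogenic progress curves (30 min, 1-min reads, 30° C) were recorded for 0.25 nM FXIa cleaving 50 μM Glp-Pro-Arg-AMC in Hepes pH 7.4 buffer with NaCl and Tween 20. Compounds were serially two-fold diluted, and IC50 was fitted with a Hill equation.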

Thrombin = Thrombin (Homo sapiens (Human), UniProt P00734); test: Dose response assay for protease inhibitors: thrombin; type: biochemical; settings: selectivity, thrombin over Factor XIa
How it was run: (§1)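 Glp-Pro-Arg-AMC substrate (thrombin, trypsin) or Pro-Phe-Arg-AMC/Boc-Leu-Gly-Arg-AMC (Factor Xa), diluted to 100 μM, in 20 mM Hepes pH 7.4, 150 mM NaCl, 0.02% Tween 20; enzyme diluted to 0.5 nM before addition. Two-fold serial compound dilutions; kinetic reads at 30° C. Data yield IC50 and Kon.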

Factor Xa = Factor Xa (Homo sapiens (Human), UniProt P00742); test: Dose response assay for protease inhibitors: Factor Xa; type: biochemical; settings: selectivity, Factor Xa over Factor XIa
Factor Xa, sequence (P00742 235-488): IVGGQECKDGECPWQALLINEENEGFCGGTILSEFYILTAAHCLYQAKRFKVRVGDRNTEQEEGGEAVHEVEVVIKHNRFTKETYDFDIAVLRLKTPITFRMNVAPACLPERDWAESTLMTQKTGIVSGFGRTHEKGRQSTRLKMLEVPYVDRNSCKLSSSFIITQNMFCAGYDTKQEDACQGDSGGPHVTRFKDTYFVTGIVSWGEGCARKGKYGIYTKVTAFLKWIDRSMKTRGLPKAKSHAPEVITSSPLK
Factor Xa, sequence (P00742 41-179 partner): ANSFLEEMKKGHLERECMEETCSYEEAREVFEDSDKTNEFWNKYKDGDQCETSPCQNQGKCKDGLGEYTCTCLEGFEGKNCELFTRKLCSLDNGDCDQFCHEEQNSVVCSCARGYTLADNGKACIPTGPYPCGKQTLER
How it was run: as §1

Question: For `CC[C@@H](NC(=O)N1C(=O)[C@H](Cc2ccnc(N)c2)[C@H]1C(=O)N(C)c1ccnn1C)C1CCCCC1` [Compound 1-63, (2S,3R)-3-((2-aminopyridin-4-yl)methyl)-N2-(1-methyl-1H-pyrazol-5-yl)-N1-((R)-1-cyclohexylpropyl)-N2-methyl-4-oxoazetidine-1,2-dicarboxamide], which Papp A→B at 60 min, 10 μM [1] is on record?
Answer: 11 to 30 ×10⁻⁶ cm/s

Question: What about the Papp B→A at 40 min, 10 μM [1] of the same compound?
Answer: 31 to 50 ×10⁻⁶ cm/s

Question: What about the IC50 (Factor XIa) of the same compound?
Answer: < 10 nM

Question: What about the “Ratio: Thrombin/FXIa” value (Thrombin) of the same compound?
Answer: I (“I” indicates > 500)

Question: And the “Ratio: FXa/FXIa” value (Factor Xa)?
Answer: I (“I” indicates > 500)

Question: Which Papp A→B at 60 min, 10 μM [1] does the source give for `CN(C(=O)[C@@H]1[C@@H](Cc2ccnc(N)c2)C(=O)N1C(=O)N[C@@H](C1CCCCC1)C(F)(F)F)c1ccn(C)n1` [Compound 1-32, (2S,3R)-3-((2-aminopyridin-4-yl)methyl)-N2-(1-methyl-1H-pyrazol-3-yl)-N1-((S)-1-cyclohexyl-2,2,2-trifluoroethyl)-N2-methyl-4-oxoazetidine-1,2-dicarboxamide] here?
Answer: 11 to 30 ×10⁻⁶ cm/s

Question: And the Papp B→A at 40 min, 10 μM [1]?
Answer: 11 to 30 ×10⁻⁶ cm/s

Question: What about the IC50 (Factor XIa) of the same compound?
Answer: < 10 nM

Question: And the “Ratio: Thrombin/FXIa” value (Thrombin)?
Answer: H (“H” indicates 101-1000)

Question: What about the “Ratio: FXa/FXIa” value (Factor Xa) of the same compound?
Answer: I (“I” indicates > 500)

Question: What does the source list for `CC[C@@H](NC(=O)N1C(=O)[C@H](Cc2cc(C)nc(NC)c2)[C@H]1C(=O)N(C)c1nccn1C)c1cccc(Cl)c1` [Compound 1-46, (2S,3R)-3-((2-methylamino-6-methylpyridin-4-yl)methyl)-N2-(1-methyl-1H-imidazol-2-yl)-N1-((R)-1-(3-chlorophenyl)propyl)-N2-methyl-4-oxoazetidine-1,2-dicarboxamide]?
Answer: Papp A→B at 60 min, 10 μM [1]: 11 to 30 ×10⁻⁶ cm/s; Papp B→A at 40 min, 10 μM [1]: 11 to 30 ×10⁻⁶ cm/s; IC50 (Factor XIa): < 10 nM; Ratio: Thrombin/FXIa (Thrombin): H (“H” indicates 101-1000); Ratio: FXa/FXIa (Factor Xa): I (“I” indicates > 500)

Question: For `CC[C@@H](NC(=O)N1C(=O)[C@H](Cc2cc(C)nc(N)c2)[C@H]1C(=O)N(C)c1cnn(C)c1)c1cccc(Cl)c1` [Compound 1-15, (2S,3R)-3-((2-amino-6-methylpyridin-4-yl)methyl)-N2-(1-methyl-1H-pyrazol-4-yl)-N1-((R)-1-(3-chlorophenyl)propyl)-N2-methyl-4-oxoazetidine-1,2-dicarboxamide], which Papp A→B at 60 min, 10 μM [1] is on record?
Answer: < 10 ×10⁻⁶ cm/s

Question: And the Papp B→A at 40 min, 10 μM [1]?
Answer: 11 to 30 ×10⁻⁶ cm/s

Question: What about the IC50 (Factor XIa) of the same compound?
Answer: 10 to 100 nM

Question: What about the “Ratio: Thrombin/FXIa” value (Thrombin) of the same compound?
Answer: G (“G” indicates 1-100)

Question: And the “Ratio: FXa/FXIa” value (Factor Xa)?
Answer: H (“H” indicates 101-1000)

Question: Which Papp A→B at 60 min, 10 μM [1] does the source give for `CC[C@@H](NC(=O)N1C(=O)[C@H](Cc2cc(C)nc(N)c2)[C@H]1C(=O)N(C)c1ccnn1C)c1ccc(C)c(F)c1` [Compound 1-155, (2S,3R)-3-((2-amino-6-methylpyridin-4-yl)methyl)-N2-(1-methyl-1H-pyrazol-5-yl)-N1-((R)-1-(3-fluoro-4-methylphenyl)propyl)-N2-methyl-4-oxoazetidine-1,2-dicarboxamide] here?
Answer: < 10 ×10⁻⁶ cm/s

Question: And the Papp B→A at 40 min, 10 μM [1]?
Answer: 11 to 30 ×10⁻⁶ cm/s

Question: And the IC50 (Factor XIa)?
Answer: < 10 nM

Question: And the “Ratio: Thrombin/FXIa” value (Thrombin)?
Answer: I (“I” indicates > 500)

Question: What about the “Ratio: FXa/FXIa” value (Factor Xa) of the same compound?
Answer: I (“I” indicates > 500)

Question: What does the source list for `CC[C@@H](NC(=O)N1C(=O)[C@H](Cc2cc(C)nc(N)c2)[C@H]1C(=O)N(C)c1ccnn1C)c1ccc(F)c(F)c1` [Compound 1-158, (2S,3R)-3-((2-amino-6-methylpyridin-4-yl)methyl)-N2-(1-methyl-1H-pyrazol-5-yl)-N1-((R)-1-(3,4-difluorophenyl)propyl)-N2-methyl-4-oxoazetidine-1,2-dicarboxamide]?
Answer: Papp A→B at 60 min, 10 μM [1]: < 10 ×10⁻⁶ cm/s; Papp B→A at 40 min, 10 μM [1]: 11 to 30 ×10⁻⁶ cm/s; IC50 (Factor XIa): < 10 nM; Ratio: Thrombin/FXIa (Thrombin): I (“I” indicates > 500); Ratio: FXa/FXIa (Factor Xa): I (“I” indicates > 500)

Question: Which results are given for `CC[C@@H](NC(=O)N1C(=O)[C@H](Cc2ccnc(N)c2)[C@H]1C(=O)N(C)c1cccs1)c1ccccc1` [Compound 1-10, (2S,3R)-3-((2-aminopyridin-4-yl)methyl)-N2-(thiophen-2-yl)-N1-((R)-1-phenylpropyl)-N2-methyl-4-oxoazetidine-1,2-dicarboxamide]?
Answer: Papp A→B at 60 min, 10 μM [1]: 11 to 30 ×10⁻⁶ cm/s; Papp B→A at 40 min, 10 μM [1]: 11 to 30 ×10⁻⁶ cm/s; IC50 (Factor XIa): < 10 nM; Ratio: Thrombin/FXIa (Thrombin): H (“H” indicates 101-1000); Ratio: FXa/FXIa (Factor Xa): H (“H” indicates 101-1000)
